The values that follow come from paper PMC9116478, “Population Pharmacokinetics of Caspofungin and Dose Simulations in Heart Transplant Recipients” (Antimicrobial Agents and Chemotherapy, 2022).

Where two headings read alike, the source gives them in different places. Where only a bound is given, the exact number is not on record here.

For series [1] the following is noted: under normal plasma protein levels; cited from earlier work. From the text:
Kurland et al. ([26]) found a negative correlation between hypoalbuminemia and elimination rate constant. […] They also identified total bilirubin (TBIL) as another covariate. ALB and TBIL levels were collectively found to affect CL of caspofungin.

Another series concerns Candida glabrata. The following applies: pharmacodynamic target used for PTA; cited from earlier work. From the text: (§1) This study used Matlab software for simulations. The simulated data were based on the virtual patients with different ALB levels (25, 30, 37, 45, and 50 g/liter) at various dosage regimens (50-, 70-, 100-, 150-, and 200-mg maintenance dose). The median ALB level of the research population was 37 g/liter. We generated 1,000 virtual patients whose pharmacokinetic parameters were randomly assigned according to the distributions with the median of CL, θALB-CL, and CL interindividual variations and their calculated standard deviations from bootstraps (Table 2) for the simulations. AUC was calculate ...

For a further series, the system named is Candida parapsilosis. The following applies: pharmacodynamic target used for PTA; cited from earlier work.
From the text: as §1

A further series has as its system Candida albicans. The following applies: pharmacodynamic target used for PTA; cited from earlier work.
From the text: as §1

The nature of series [2]: Population pharmacokinetics of caspofungin in HTx and non-HTx patients (plasma LC-MS/MS, NONMEM two-compartment model). The series is classed as in vivo, human (patients). The following applies: for clearance / Cmax: human, iv; for Cmax: read-out: Cmax (peak plasma concentration). From the text: This was a prospective, single-center, open-label study. We recruited patients who underwent HTx at the Guangdong Provincial People’s Hospital in the SICU from July 2019 to July 2021. The inclusion criteria were: (i) patients aged 18 years or older who received caspofungin in SICU and accepted cardiac surgery and (ii) acceptability of multiple blood sampling. Patients who were allergic to caspofungin, those receiving drugs that can affect the PK of caspofungin, and those who could not receive multiple blood sampling were excluded. Patients who underwent HTx in SICU were recruited as the HTx group. Patients who never received HTx but underwent cardiac surgery and being in SICU were recruited in the control group. This study was approved by the Ethics Committee of Guangdong Provincial People’s Hospital, Guangdong Academy of Medical Sciences (approval number GDREC2018355(R1)H).
Caspofungin (Laboratoires Merck Sharp & Dohme Chibret, France) was administered by 1-h intravenous infusion at a dose of 50 mg every 24 h after a loading dose of 70 mg. Blood samples were collected before administration and at 1, 2, 6, 10, 16, and 24 h after the administration of caspofungin for at least 3 days. Plasma was separated by centrifugation of blood samples at 2,000 × g for 10 min at 4°C and stored at −80°C before analysis.
All plasma samples were detected by the liquid chromatography-tandem mass spectrometry (LC-MS/MS) method. First, 200 μL of acetonitrile-dissolved extraction working solution was added to 100 μL of plasma sample and mixed by vortexing at 3,000 rpm for 1 min. After centrifugation at 14,000 rpm for 15 min at 4°C, 2 μL supernatant was injected for LC-MS/MS analysis. The chromatographic column was an Agilent poroshell 120 SB-C18 (2.7 μm, 3.0 × 50 mm) column. The mobile phase was acetonitrile with 0.1% formic acid (A) and water with 0.1% formic acid (B). In the initial 0 to 0.5 min, the mobile phase was composed of 95% B and 5% A, and then within 0.5 to 1.5 min, the mobile phase B decreased linearly from 95% to 5% and remained unchanged for 1.5 to 2 min. Finally, it returned to 95% B and 5% A, and the entire analysis time was 5 min. The flow rate was 0.5 mL/min, and the column temperature was 35°C. A positive ion mode multiple reaction monitoring detection mode through electrospray ionization was performed with the transitions of m/z 547.3 → 538.2 for caspofungin and m/z 549.3 → 540.3 for caspofungin-d4 (IS). The linear range of the method was 0.4 to 25 mg/liter. The intraday and interday precision were 1.56 to 3.32% and 3.40 to 7.48%, respectively, and the deviation of accuracy was 0.96 to 2.21%.
We analyzed population PK data using the nonlinear mixed-effects modeling software NONMEM 7.3 (version 7.3, ICON plc, NY, USA). We employed one-, two-, and three-compartment pharmacokinetic models to fit the data and selected the most suitable basic structural model. Further, all potential covariates for caspofungin PK parameters reported in previous studies were analyzed. The covariates included demographic characteristics, renal function indices, liver function indices, HTx status, ECMO, and CRRT. Different covariate types have different variable models. Discrete covariates (such as sex) were modeled as follows. (1) Cij=Ctv,j×θjcov×enj
For continuous covariates (such as weight), an exponential model was selected with average covariates values and an adjusting factor. (2) Cij=Ctv,j×(cov/covave)^θj×e^ηj
In the above equations, Cij is the individual value. Ctv,j is the population typical value. cov in equation 1 is expressed as 0 or 1, cov in equation 2 is the value of the covariate, and θj is an impact factor. covave is the average value of a continuous covariate. Interindividual variability is shown as ηj, which is normally distributed with mean 0 and variance ω^2. Residual variability was modeled using a mixture of additive and proportional error models. […]

The mark [3] stands for this setting: Control group (n = 31), median (range).
Setting [4] is: Heart transplantation group (n = 27), median (range).
[5] abbreviates: population estimate, 58 patients, 414 plasma concentrations, 50 mg q24h i.v. after 70 mg loading dose, two-compartment model.

On to `CC[C@H](C)C[C@H](C)CCCCCCCCC(=O)N[C@H]1C[C@@H](O)[C@@H](NCCN)NC(=O)[C@@H]2[C@@H](O)CCN2C(=O)[C@H]([C@H](O)CCN)NC(=O)[C@H]([C@H](O)[C@@H](O)c2ccc(O)cc2)NC(=O)[C@@H]2C[C@@H](O)CN2C(=O)[C@H]([C@@H](C)O)NC1=O` [caspofungin], for which, in series [1], the protein binding rate is listed as 97%. Also, the “target AUC/MIC value” in the series on Candida glabrata is reported as greater than 450; in the series on Candida parapsilosis, > 1,185; with Candida albicans it was “greater than 865”. In addition, the Vc in series [2] (setting [3]) came out at 5.27 L; in series [2] (setting [4]), 3.14 L. In addition, the Vp was found to be 6.31 L in series [2] (setting [3]) and 4.98 L in series [2] (setting [4]). Besides, the Q in series [2] (control group, median) amounted to 2.85 L/h. Moreover, the clearance in series [2] (population estimate, 58 patients (27 HTx, 31 non-HTx), 414 plasma concentrations, 50 mg q24h 1-h i.v. infusion after 70 mg loading dose, LC-MS/MS, two-compartment model, read-out: CL (clearance), final model estimate (converted)) was 6.42 mL/min; in series [2] (plasma, 50 mg, Control group (n = 31), median (range), read-out: CL (converted)), 7.5 mL/min; in series [2] (plasma, 50 mg, Heart transplantation group (n = 27), median (range), read-out: CL (converted)) it was 5.83 mL/min. In addition, the Cmax came out at 7890 ng/mL in series [2] (plasma, 50 mg, Control group, non-HTx critically ill patients (n = 31), median (range), 50 mg q24h 1-h i.v. infusion after 70 mg loading dose) and 11700 ng/mL in series [2] (plasma, 50 mg, Heart transplantation group (n = 27), median (range), 50 mg q24h 1-h i.v. infusion after 70 mg loading dose). The “Q (intercompartmental clearance), final model estimate” value in series [2] (setting [5]) is 2.85 L/h. Besides, in series [2] (setting [5]), the “Vc (volume of distribution of the central compartment), final model estimate” value is 4.27 L. Also, the “Vp (volume of distribution of the peripheral compartment), final model estimate” value in series [2] (setting [5]) is 6.01 L.
